Test systems include ACHN renal; CAKI-1 renal; HCC-2998 colon; RXF 393 renal; SF-268 CNS; SN12C renal; SNB-75 CNS; NCI-H226 lung; MCF7 breast.
What all share (test): NCI anticancer screen, dose series, 48 h

Each structure is given as a SMILES string. Values joined by “and” are separate entries in the source; they are usually repeats but may differ in a detail not shown here. Equal values may be shown once.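 Dose response: 5 concentrations. Exposure: 48 h. Format: 96-well plates. Endpoint: linear interpolation; highest concentration if not reached. Here, GI50 denotes the concentration required for 50% inhibition of growth. TGI is the concentration that stops growth completely.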

As to `CCOC(=O)[C@H]1CSC[C@@H](C(=O)OC)N1`, the TGI with ACHN renal, in the assay on CAKI-1 renal, in the assay on HCC-2998 colon, in the assay with RXF 393 renal, in the assay on SF-268 CNS and with SN12C renal was more than 100 µM throughout. This molecule also yielded a TGI in the assay on SNB-75 CNS of more than 100 µM.

On to `COC(=O)[C@@]1(O)CC(C)C=C1C=O` (stereo partly drawn), for which the TGI was more than 100 µM in the assay with ACHN renal; more than 100 µM in the assay with CAKI-1 renal; more than 100 µM with HCC-2998 colon; more than 100 µM with NCI-H226 lung; 42.9 µM in the assay on RXF 393 renal; more than 100 µM with SF-268 CNS. In addition, the TGI in the assay on SN12C renal and with SNB-75 CNS was more than 100 µM each time.

Regarding `COc1ccc(-c2nnc(-c3c(C)n(C)n(-c4ccccc4)c3=O)o2)cc1`, the TGI with ACHN renal, in the assay on HCC-2998 colon, in the assay with NCI-H226 lung, in the assay on RXF 393 renal, in the assay with SF-268 CNS and in the assay on SN12C renal was more than 100 µM each time. The TGI in the assay on SNB-75 CNS is more than 100 µM.

For `O=[P+](O)c1cc2ccccc2c2ccccc12`, the TGI with HCC-2998 colon, in the assay with NCI-H226 lung, with RXF 393 renal, in the assay with SF-268 CNS, with SN12C renal and in the assay with SNB-75 CNS was more than 100 µM throughout.

For the molecule `O=C(O)C(C(=O)C(=O)C(C(=O)O)c1ccc(Cl)cc1)c1ccc(Cl)cc1` (stereo not drawn), the TGI with ACHN renal is 12.8 µM; in the assay on CAKI-1 renal, 13.6 µM; in the assay with HCC-2998 colon, 14.1 µM; with NCI-H226 lung, 16.4 µM; with RXF 393 renal it was 8.37 µM; with SF-268 CNS, 11.9 µM. The TGI was 10.8 µM in the assay on SN12C renal and 8.89 µM in the assay with SNB-75 CNS.

Take `CC(C)N1CCC2(CC1)NNc1ncccc1-n1cccc12`: the TGI with ACHN renal, with CAKI-1 renal, in the assay on HCC-2998 colon, with NCI-H226 lung, with SF-268 CNS and in the assay on SN12C renal was more than 100 µM in each case. This molecule also displayed a TGI in the assay with SNB-75 CNS of more than 100 µM.

Turning to `CCC(=O)C(C)C(=O)C(=O)C(=O)OC` (stereo not drawn), the TGI is more than 100 µM in the assay with ACHN renal; more than 100 µM in the assay on CAKI-1 renal; more than 100 µM in the assay with HCC-2998 colon; more than 100 µM with NCI-H226 lung; 99.3 µM with RXF 393 renal; more than 100 µM in the assay on SF-268 CNS. The TGI with SN12C renal and in the assay on SNB-75 CNS was more than 100 µM in each case.

Consider `Cc1ccc(-c2cc(=O)c3cc(C)c(C)c(C(=O)O)c3o2)cc1`, for which the TGI in the assay on ACHN renal, in the assay with HCC-2998 colon, with SF-268 CNS, in the assay with SN12C renal and with SNB-75 CNS was more than 100 µM each time.

For the molecule `CC(C)(c1ccc(Oc2ccc(C#N)c(C#N)c2)cc1)c1ccc(Oc2ccc(C#N)c(C#N)c2)cc1`, the GI50 in the assay with ACHN renal, in the assay on CAKI-1 renal, in the assay with HCC-2998 colon, with RXF 393 renal, with SF-268 CNS and in the assay with SN12C renal was more than 100 µM in each case. For the same molecule, the TGI in the assay with ACHN renal, in the assay with CAKI-1 renal, in the assay on HCC-2998 colon, in the assay on RXF 393 renal, with SF-268 CNS and with SN12C renal was more than 100 µM each time. Moreover, in the assay on SNB-75 CNS, the TGI was 89.2 µM.

On to `CN(C(=O)C12C3(C(=O)C(C)(C)C)C4C5(C#N)C3C1(C(=O)C(C)(C)C)C5C42C(=O)C(C)(C)C)C(C)(C)C` (stereo not drawn), for which the TGI in the assay with ACHN renal, in the assay with CAKI-1 renal, in the assay on HCC-2998 colon, in the assay on NCI-H226 lung, with SF-268 CNS and in the assay on SN12C renal was more than 50 µM in each case. This molecule returned a TGI in the assay on SNB-75 CNS of more than 50 µM.

In the case of `CC(=O)OC(C)(C)/C=C/C(=O)[C@](C)(O)[C@H]1[C@H](O)C[C@@]2(C)[C@@H]3CC=C4[C@@H](C[C@H](O)C(=O)C4(C)C)[C@]3(CO)C(=O)C[C@]12C`, the TGI with ACHN renal was 0.882 µM and 0.844 µM; in the assay on CAKI-1 renal it was 0.564 µM and 0.66 µM; in the assay with HCC-2998 colon, 15.1 µM; in the assay with NCI-H226 lung, 0.776 µM and 0.293 µM; with RXF 393 renal, 0.405 µM and 0.458 µM; in the assay with SF-268 CNS, 0.971 µM and 1.29 µM. The TGI was 17.4 µM with SN12C renal; 0.375 µM and 0.211 µM with SNB-75 CNS. For the same molecule, the GI50 is 0.29 µM in the assay on NCI-H226 lung, 0.362 µM with SF-268 CNS, 0.368 µM in the assay with SN12C renal and 0.0529 µM in the assay with SNB-75 CNS.

Take `O=c1nc(NC(c2ccccc2)(c2ccccc2)c2ccccc2)ccn1CCO`: the TGI in the assay on ACHN renal, in the assay with HCC-2998 colon, in the assay with NCI-H226 lung, in the assay with RXF 393 renal, with SF-268 CNS and in the assay on SN12C renal was more than 100 µM each time. Further, in the assay on SNB-75 CNS, the TGI is more than 100 µM.

As for `CCO/C=C1\N=C(C(Cl)c2ccccc2)OC1=O` (stereo not drawn), the TGI in the assay with ACHN renal, in the assay on CAKI-1 renal, in the assay on HCC-2998 colon, in the assay on NCI-H226 lung, with RXF 393 renal and with SF-268 CNS was more than 100 µM in each case. Besides, the TGI in the assay with SN12C renal and in the assay on SNB-75 CNS was more than 100 µM throughout.

Take `CN1CCN(C(=O)c2c(NC(=O)NS(=O)(=O)c3ccccc3)sc3c2CCCCC3)CC1`: the GI50 was 30.7 µM in the assay with ACHN renal; 20.3 µM with CAKI-1 renal; 21.9 µM in the assay with HCC-2998 colon; 52.7 µM in the assay on MCF7 breast; 33.1 µM with NCI-H226 lung; 34 µM with RXF 393 renal. For the same molecule, the GI50 with SF-268 CNS is 41.2 µM; in the assay with SN12C renal it was 25 µM. Also, the TGI in the assay with ACHN renal was more than 100 µM; in the assay with CAKI-1 renal, 54.4 µM; in the assay with HCC-2998 colon it was 44.2 µM; in the assay on MCF7 breast, more than 100 µM; with NCI-H226 lung, more than 100 µM; in the assay with RXF 393 renal, more than 100 µM. The TGI is more than 100 µM in the assay on SF-268 CNS and 63.8 µM in the assay on SN12C renal.

For `CC(C)(O)[C@@H]1CC[C@@]2(C)CCC[C@H](O)[C@H]2C1`, the TGI in the assay with ACHN renal, in the assay on CAKI-1 renal, with HCC-2998 colon, in the assay on NCI-H226 lung, in the assay on SF-268 CNS and in the assay with SN12C renal was more than 100 µM throughout. The same molecule yielded a TGI with SNB-75 CNS of more than 100 µM.

`COc1ccc(OC)c(NCC#N)c1`: the TGI with ACHN renal, in the assay on HCC-2998 colon, in the assay on NCI-H226 lung, in the assay on RXF 393 renal, in the assay on SF-268 CNS and in the assay on SN12C renal was more than 100 µM throughout. Moreover, the TGI in the assay with SNB-75 CNS is more than 100 µM.

The values are drawn from PubChem BioAssay (NCI).
